Experimental data as given in ChEMBL document CHEMBL2062364, “Discovery and optimization of new benzimidazole- and benzoxazole-pyrimidone selective PI3Kβ inhibitors for the treatment of phosphatase and TENsin homologue (PTEN)-deficient cancers” (J Med Chem, 2012).

Assays:
[1] = Drug metabolism in mouse liver microsomes; assay type: ADME, Microsome; settings: read-out: Drug metabolism
[2] = AUC (0 to infinity) in CB17/ICR-Prkdc SCID mouse at 6 mg/kg, iv; assay type: ADME, organism-based; parameters: time infinity, dose 6 mg/kg, route intravenous; settings: plasma
PC-3 = experiment: Antitumor activity against PTEN-deficient human PC3 cells xenografted in SCID mouse assessed as tumor growth inhibition at 300 mg/kg, po BID for 9 days measured on day 32 relative to control; assay type: functional
Mus musculus = experiment: Inhibition of Akt phosphorylation at T308 residue in plasma of po dosed SCID mouse bearing human PTEN-deficient PC3 cells administered BID; assay type: functional, organism-based; settings: PC-3, Plasma
[3] = Drug uptake in tumor of SCID mouse xenografted with PTEN-deficient human PC3 cells at 300 mg/kg, po BID measured after 3 hrs; assay type: ADME, organism-based, Neoplasm, PC-3; parameters: dose 300 mg/kg, route oral; settings: read-out: Drug uptake
[4] = AUC (0 to 24 hrs) in CB17/ICR-Prkdc SCID mouse at 10 mg/kg, po; assay type: ADME, organism-based; parameters: time < 24 hr, dose 10 mg/kg, route oral; settings: plasma
[5] = AUC (0 to infinity) in CB17/ICR-Prkdc SCID mouse at 10 mg/kg, po; assay type: ADME, organism-based; parameters: time infinity, dose 10 mg/kg, route oral; settings: plasma
[6] = biological target: T1, Phosphatidylinositol 4,5-bisphosphate 3-kinase catalytic subunit delta isoform (Homo sapiens, UniProt O00329); experiment: Inhibition of human PI3Kdelta-mediated Akt phosphorylation at Ser473 residue expressed in mouse MEF-3T3 cells after 0.5 to 2 hrs by Western blot analysis; assay type: cell-based
T1 sequence (O00329 whole entry): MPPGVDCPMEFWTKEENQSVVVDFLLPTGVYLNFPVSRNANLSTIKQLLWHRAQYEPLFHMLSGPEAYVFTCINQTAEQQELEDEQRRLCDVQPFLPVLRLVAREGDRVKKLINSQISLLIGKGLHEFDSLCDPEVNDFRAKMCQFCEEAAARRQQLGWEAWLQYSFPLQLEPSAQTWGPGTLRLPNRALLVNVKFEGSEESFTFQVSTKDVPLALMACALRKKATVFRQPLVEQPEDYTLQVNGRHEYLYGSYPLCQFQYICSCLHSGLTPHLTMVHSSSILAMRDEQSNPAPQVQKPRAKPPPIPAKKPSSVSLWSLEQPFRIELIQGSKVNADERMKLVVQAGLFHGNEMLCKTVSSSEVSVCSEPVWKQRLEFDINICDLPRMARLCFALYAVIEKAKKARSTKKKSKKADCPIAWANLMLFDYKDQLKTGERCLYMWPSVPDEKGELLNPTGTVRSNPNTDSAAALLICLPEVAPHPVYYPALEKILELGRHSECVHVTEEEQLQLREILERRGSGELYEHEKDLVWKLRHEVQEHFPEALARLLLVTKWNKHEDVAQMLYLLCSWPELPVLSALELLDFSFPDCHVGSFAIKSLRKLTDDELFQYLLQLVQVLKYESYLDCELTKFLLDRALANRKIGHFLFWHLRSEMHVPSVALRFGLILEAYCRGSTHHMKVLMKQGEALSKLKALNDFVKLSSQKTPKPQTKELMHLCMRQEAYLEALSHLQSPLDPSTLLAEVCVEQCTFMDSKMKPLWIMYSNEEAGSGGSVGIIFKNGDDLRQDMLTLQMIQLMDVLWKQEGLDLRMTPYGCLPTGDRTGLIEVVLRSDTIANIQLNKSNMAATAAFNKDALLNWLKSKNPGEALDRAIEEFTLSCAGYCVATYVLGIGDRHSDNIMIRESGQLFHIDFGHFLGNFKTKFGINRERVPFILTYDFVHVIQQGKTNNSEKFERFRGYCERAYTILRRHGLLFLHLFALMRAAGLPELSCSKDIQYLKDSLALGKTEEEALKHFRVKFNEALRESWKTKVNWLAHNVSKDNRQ

[7] = Drug metabolism in human liver microsomes; assay type: ADME, Microsome; settings: read-out: Drug metabolism

Compound: Cn1c(Cc2nc(N3CCOCC3)cc(=O)[nH]2)nc2ccccc21
- metabolised [1]: 13%
- AUC(0-inf) [2]: 1950 ng·h/mL
- T/C (PC-3): 45%
- EC50 (Mus musculus): 1600 nM
- concentration at 3 h [3]: 6 µM
- AUC(0-t) at 24 h [4]: 846 ng·h/mL
- AUC(0-inf) [5]: 850 ng·h/mL
- IC50 [6]: 2650 nM
- metabolised [7]: 27%
